In patent US11807612B2, “Heterocyclic compound and salt thereof, and luminescent substrate composition” (The University of Electro-Communications, priority 2020, dated 2023):

Columns and labels:
firefly luciferase (Luc) = firefly luciferase (Luc) (Photinus pyralis, UniProt P08659); conditions: firefly luminescence system; background, PTL 1 to 3; cited from earlier work
[1] = target: T1, Ppy luciferase (derived from North American firefly Photinus pyralis) (Photinus pyralis, UniProt P08659); test: Luminescence spectrum measurement of luminescent substrates with Ppy luciferase, ATP-Mg; format: biochemical; conditions: for peak top wavelength of luminescence spectrum: substrate solution 100 μM, 1 mg/mL Ppy luciferase, 200 μM ATP-Mg, KPB pH 8.0, room temperature, 180 seconds, FIG. 1
T1 construct: purchased Promega Corporation E1701
T1 sequence (P08659 whole entry): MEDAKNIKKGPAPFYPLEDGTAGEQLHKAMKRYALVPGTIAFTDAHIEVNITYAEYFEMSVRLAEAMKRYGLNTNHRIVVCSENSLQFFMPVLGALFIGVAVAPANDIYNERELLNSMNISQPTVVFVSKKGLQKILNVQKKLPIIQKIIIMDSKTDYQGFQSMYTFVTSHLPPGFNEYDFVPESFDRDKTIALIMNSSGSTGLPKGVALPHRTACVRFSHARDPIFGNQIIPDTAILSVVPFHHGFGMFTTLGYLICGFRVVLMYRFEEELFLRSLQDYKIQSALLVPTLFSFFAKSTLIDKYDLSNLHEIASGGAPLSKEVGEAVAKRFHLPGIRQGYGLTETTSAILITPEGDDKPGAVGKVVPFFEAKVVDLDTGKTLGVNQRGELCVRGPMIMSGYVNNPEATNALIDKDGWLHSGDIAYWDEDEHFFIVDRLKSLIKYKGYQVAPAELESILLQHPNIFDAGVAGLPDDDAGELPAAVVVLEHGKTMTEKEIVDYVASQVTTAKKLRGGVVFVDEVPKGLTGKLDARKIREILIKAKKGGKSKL
Experimental: The luminescent substrates represented by structural formulae (1-1) and (1-2) that were synthesized as described above, a luminescent substrate represented by the following structural formula (b), and natural firefly luciferin (LH2, produced by Wako Pure Chemical Industries, Ltd.) represented by the following structural formula (d) were each used to measure a luminescence spectrum. Note that the luminescent substrate represented by structural formula (b) was prepared in accordance with Example 1 of JP2014-218456A (PTL 2).
A weak emission fluorescence spectrometer AB-1850 produced by ATTO Corporation was used to measure a luminescence spectrum. Each measured spectrum is a spectrum that has been corrected for detector characteristics (data interval 0.25 nm, measurement range 400 nm to 750 nm).
Recombinant luciferase (QuantiLum® (QuantiLum is a registered trademark in Japan, other countries, or both), catalogue no. E1701) produced by Promega Corporation
After mixing 5 μL of KPB solution (pH 8.0, 500 mM), 5 μL of luminescent substrate solution (100 μM), 5 μL of 1 mg/mL Ppy luciferase solution, and 10 μL of 200 μM ATP-Mg solution at room temperature, luminescence spectrum measurement was performed for 180 seconds using the luminescence spectrum measurement apparatus (AB-1850). The luminescence intensity was compared by the peak top value at this time. The results are illustrated in FIG. 1 and FIG. 2.
FIG. 1 is a luminescence spectrum normalized to give a maximum value for luminescence intensity of 1, and FIG. 2 is a luminescence spectrum illustrating luminescence intensity at each wavelength.

Sequence of firefly luciferase (Luc) (P08659 whole entry): as above

| Compound | maximum wavelength of luminescence spectrum / wavelength of emitted light (firefly luciferase (Luc)) | luminescence intensity (peak top value) relative to luminescent substrate of structural formula (b) ([1]; same conditions, FIGS. 1 and 2) | luminescence intensity (peak top value) relative to natural firefly luciferin ([1]; same conditions, FIGS. 1 and 2) | peak top wavelength of luminescence spectrum [1] | luminescence wavelength compared with luminescent substrate of structural formula (b) ([1]; same conditions, FIGS. 1 and 2) |
| --- | --- | --- | --- | --- | --- |
| CN(C)c1ccc(/C=C/C=C/C2=N[C@@H](C(=O)O)CS2)cc1 [structural formula (a)] | roughly 670 nm |  |  |  |  |
| CN(C)c1cnc(/C=C/C=C/C2=N[C@@H](C(=O)O)CS2)s1 [structural formula (1-2), (S)-2-((1E,3E)-4-(5-(dimethylamino)thiazol-2-yl)buta-1,3-dien-1-yl)-4,5-dihydrothiazole-4-carboxylic acid] |  | approximately four times higher | approximately half | approximately 680 nm |  |
| CN(C)c1ccc(/C=C/C=C/C2=N[C@@H](C(=O)O)CS2)nc1 [structural formula (c)] | roughly 670 nm |  |  |  |  |
| O=C(O)[C@H]1CSC(c2nc3ccc(O)cc3s2)=N1 [natural firefly luciferin, firefly luciferin] | approximately 560 nm |  |  |  |  |
| CN(C)c1ncc(/C=C/C=C/C2=N[C@@H](C(=O)O)CS2)s1 [structural formula (1-1), (S)-2-((1E,3E)-4-(2-(dimethylamino)thiazol-5-yl)buta-1,3-dien-1-yl)-4,5-dihydrothiazole-4-carboxylic acid] |  | approximately four times higher | approximately half | approximately 630 nm | shorter wavelength |
